Laboratory results as given in PubChem BioAssay (NCI).
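Assay format: 96-well plates, 48-hour exposure. GI50 = concentration required for 50% inhibition of growth. Definition used: TGI = concentration required for complete inhibition of growth.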

How the values were obtained:
Test in all cases: NCI-60 cell line screen, 48 h
MALME-3M melanoma = tested on: MALME-3M melanoma
PC-3 prostate = tested on: PC-3 prostate
UACC-257 melanoma = tested on: UACC-257 melanoma
OVCAR-3 ovarian = tested on: OVCAR-3 ovarian
NCI-H23 lung = tested on: NCI-H23 lung
786-0 renal = tested on: 786-0 renal
HS 578T breast = tested on: HS 578T breast
UACC-62 melanoma = tested on: UACC-62 melanoma
NCI-H460 lung = tested on: NCI-H460 lung
ACHN renal = tested on: ACHN renal
SK-OV-3 ovarian = tested on: SK-OV-3 ovarian
HOP-92 NSCLC = tested on: HOP-92 NSCLC
A549 NSCLC = tested on: A549 NSCLC
RXF 393 renal = tested on: RXF 393 renal
SW-620 colon = tested on: SW-620 colon
BT-549 breast = tested on: BT-549 breast
SR leukemia = tested on: SR leukemia
CAKI-1 renal = tested on: CAKI-1 renal
MDA-MB-435 = tested on: MDA-MB-435
DU-145 prostate = tested on: DU-145 prostate
M14 melanoma = tested on: M14 melanoma
MDA-MB-468 breast = tested on: MDA-MB-468 breast
HOP-62 NSCLC = tested on: HOP-62 NSCLC
T-47D breast = tested on: T-47D breast
SK-MEL-28 melanoma = tested on: SK-MEL-28 melanoma
SNB-19 CNS = tested on: SNB-19 CNS
COLO 205 colon = tested on: COLO 205 colon
NCI/ADR-RES ovarian = tested on: NCI/ADR-RES ovarian
OVCAR-4 ovarian = tested on: OVCAR-4 ovarian
SF-295 CNS = tested on: SF-295 CNS
HT29 colon = tested on: HT29 colon
SF-539 CNS = tested on: SF-539 CNS
EKVX NSCLC = tested on: EKVX NSCLC
HCT-15 colon = tested on: HCT-15 colon
A498 renal = tested on: A498 renal
SN12C renal = tested on: SN12C renal
K-562 leukemia = tested on: K-562 leukemia
HL-60(TB) leukemia = tested on: HL-60(TB) leukemia
U251 CNS = tested on: U251 CNS
UO-31 renal = tested on: UO-31 renal
RPMI-8226 leukemia = tested on: RPMI-8226 leukemia
SNB-75 CNS = tested on: SNB-75 CNS
SK-MEL-5 melanoma = tested on: SK-MEL-5 melanoma
MDA-MB-231 breast = tested on: MDA-MB-231 breast
LOX IMVI melanoma = tested on: LOX IMVI melanoma
MCF7 breast = tested on: MCF7 breast
IGROV1 ovarian = tested on: IGROV1 ovarian
MOLT-4 leukemia = tested on: MOLT-4 leukemia
OVCAR-5 ovarian = tested on: OVCAR-5 ovarian
SK-MEL-2 melanoma = tested on: SK-MEL-2 melanoma
SF-268 CNS = tested on: SF-268 CNS
NCI-H226 lung = tested on: NCI-H226 lung
HCC-2998 colon = tested on: HCC-2998 colon
NCI-H522 lung = tested on: NCI-H522 lung
CCRF-CEM leukemia = tested on: CCRF-CEM leukemia
OVCAR-8 ovarian = tested on: OVCAR-8 ovarian
HCT-116 colon = tested on: HCT-116 colon
KM12 colon = tested on: KM12 colon
TK-10 renal = tested on: TK-10 renal

How did the GI50 (MALME-3M melanoma) turn out when `C=C1CCC2C3(C)COC(c4ccccc4F)OC3CCC2(C)C1CC(O)C1=CCOC1=O` (stereo not drawn) was run?
Its GI50 is 22.5 µM.

And the TGI (MALME-3M melanoma)?
The TGI was 68.4 µM.

And the GI50 (PC-3 prostate)?
Its GI50 is 18.2 µM.

What about the TGI (PC-3 prostate) of the same compound?
The TGI was greater than 100 µM.

And the GI50 (UACC-257 melanoma)?
Its GI50 is 20 µM.

What about the TGI (UACC-257 melanoma) of the same compound?
The TGI was greater than 100 µM.

What about the GI50 (OVCAR-3 ovarian) of the same compound?
Its GI50 is 9.68 µM.

And the TGI (OVCAR-3 ovarian)?
Its TGI is 26.6 µM.

What about the GI50 (NCI-H23 lung) of the same compound?
The GI50 was 23.6 µM.

And the TGI (NCI-H23 lung)?
The TGI was 73.9 µM.

And the GI50 (786-0 renal)?
Its GI50 is 16.7 µM.

And the TGI (786-0 renal)?
Its TGI is 32.8 µM.

And the GI50 (HS 578T breast)?
Its GI50 is 28.1 µM.

And the TGI (HS 578T breast)?
The TGI was greater than 100 µM.

And the GI50 (UACC-62 melanoma)?
The GI50 was 15.9 µM.

What about the TGI (UACC-62 melanoma) of the same compound?
The TGI was 46 µM.

What about the GI50 (NCI-H460 lung) of the same compound?
The GI50 was 25.4 µM.

And the TGI (NCI-H460 lung)?
The TGI was greater than 100 µM.

And the GI50 (ACHN renal)?
The GI50 was 13.4 µM.

What about the TGI (ACHN renal) of the same compound?
Its TGI is 26.2 µM.

What about the GI50 (SK-OV-3 ovarian) of the same compound?
The GI50 was 37.1 µM.

What about the TGI (SK-OV-3 ovarian) of the same compound?
The TGI was greater than 100 µM.

What about the GI50 (HOP-92 NSCLC) of the same compound?
The GI50 was 18.1 µM.

And the TGI (HOP-92 NSCLC)?
The TGI was 45.4 µM.

What about the GI50 (A549 NSCLC) of the same compound?
Its GI50 is 24.4 µM.

What about the TGI (A549 NSCLC) of the same compound?
Its TGI is greater than 100 µM.

What about the GI50 (RXF 393 renal) of the same compound?
The GI50 was 14.1 µM.

What about the TGI (RXF 393 renal) of the same compound?
Its TGI is 30.9 µM.

And the GI50 (SW-620 colon)?
The GI50 was 2.1 µM.

What about the TGI (SW-620 colon) of the same compound?
Its TGI is 11.4 µM.

And the GI50 (BT-549 breast)?
Its GI50 is 5.9 µM.

What about the TGI (BT-549 breast) of the same compound?
The TGI was 22 µM.

And the GI50 (SR leukemia)?
The GI50 was 57.1 µM.

And the TGI (SR leukemia)?
Its TGI is greater than 100 µM.

And the GI50 (CAKI-1 renal)?
Its GI50 is 25 µM.

And the TGI (CAKI-1 renal)?
Its TGI is greater than 100 µM.

What about the GI50 (MDA-MB-435) of the same compound?
Its GI50 is 12.6 µM.

What about the TGI (MDA-MB-435) of the same compound?
Its TGI is 46.9 µM.

What about the GI50 (DU-145 prostate) of the same compound?
The GI50 was 28.9 µM.

What about the TGI (DU-145 prostate) of the same compound?
The TGI was greater than 100 µM.

What about the GI50 (M14 melanoma) of the same compound?
Its GI50 is 30 µM.

And the TGI (M14 melanoma)?
The TGI was greater than 100 µM.

And the GI50 (MDA-MB-468 breast)?
Its GI50 is 4.71 µM.

What about the TGI (MDA-MB-468 breast) of the same compound?
Its TGI is 19.1 µM.

What about the GI50 (HOP-62 NSCLC) of the same compound?
Its GI50 is 23 µM.

What about the TGI (HOP-62 NSCLC) of the same compound?
The TGI was 42.4 µM.

What about the GI50 (T-47D breast) of the same compound?
The GI50 was 10.7 µM.

What about the TGI (T-47D breast) of the same compound?
The TGI was greater than 100 µM.

What about the GI50 (SK-MEL-28 melanoma) of the same compound?
Its GI50 is 26.4 µM.

And the TGI (SK-MEL-28 melanoma)?
The TGI was greater than 100 µM.

And the GI50 (SNB-19 CNS)?
The GI50 was 33.1 µM.

And the TGI (SNB-19 CNS)?
The TGI was greater than 100 µM.

And the GI50 (COLO 205 colon)?
Its GI50 is 19.3 µM.

What about the TGI (COLO 205 colon) of the same compound?
The TGI was 55.9 µM.

What about the GI50 (NCI/ADR-RES ovarian) of the same compound?
The GI50 was 8.93 µM.

What about the TGI (NCI/ADR-RES ovarian) of the same compound?
The TGI was 25.3 µM.

And the GI50 (OVCAR-4 ovarian)?
The GI50 was 13.8 µM.

And the TGI (OVCAR-4 ovarian)?
The TGI was 53.9 µM.

And the GI50 (SF-295 CNS)?
The GI50 was 15.9 µM.

What about the TGI (SF-295 CNS) of the same compound?
The TGI was 44.9 µM.

And the GI50 (HT29 colon)?
Its GI50 is 13.3 µM.

And the TGI (HT29 colon)?
The TGI was 52.6 µM.

And the GI50 (SF-539 CNS)?
The GI50 was 14.9 µM.

And the TGI (SF-539 CNS)?
The TGI was 28.3 µM.

What about the GI50 (EKVX NSCLC) of the same compound?
The GI50 was 87.7 µM.

What about the TGI (EKVX NSCLC) of the same compound?
The TGI was greater than 100 µM.

What about the GI50 (HCT-15 colon) of the same compound?
The GI50 was 9.51 µM.

And the TGI (HCT-15 colon)?
The TGI was 33.5 µM.

What about the GI50 (A498 renal) of the same compound?
The GI50 was 23.5 µM.

And the TGI (A498 renal)?
The TGI was 77.2 µM.

And the GI50 (SN12C renal)?
The GI50 was 6.14 µM.

What about the TGI (SN12C renal) of the same compound?
The TGI was 92.5 µM.

What about the GI50 (K-562 leukemia) of the same compound?
Its GI50 is 5.7 µM.

What about the TGI (K-562 leukemia) of the same compound?
Its TGI is greater than 100 µM.

And the GI50 (HL-60(TB) leukemia)?
The GI50 was 5.66 µM.

And the TGI (HL-60(TB) leukemia)?
The TGI was greater than 100 µM.

And the GI50 (U251 CNS)?
The GI50 was 11.9 µM.

And the TGI (U251 CNS)?
Its TGI is 24.6 µM.

What about the GI50 (UO-31 renal) of the same compound?
Its GI50 is 13.4 µM.

And the TGI (UO-31 renal)?
Its TGI is 54.1 µM.

And the GI50 (RPMI-8226 leukemia)?
The GI50 was 6.73 µM.

What about the TGI (RPMI-8226 leukemia) of the same compound?
The TGI was greater than 100 µM.

And the GI50 (SNB-75 CNS)?
Its GI50 is 6.89 µM.

What about the TGI (SNB-75 CNS) of the same compound?
The TGI was 26.1 µM.

What about the GI50 (SK-MEL-5 melanoma) of the same compound?
Its GI50 is 17.1 µM.

What about the TGI (SK-MEL-5 melanoma) of the same compound?
Its TGI is 39.4 µM.

And the GI50 (MDA-MB-231 breast)?
The GI50 was 16.9 µM.

What about the TGI (MDA-MB-231 breast) of the same compound?
Its TGI is 35.6 µM.

And the GI50 (LOX IMVI melanoma)?
The GI50 was 11.1 µM.

What about the TGI (LOX IMVI melanoma) of the same compound?
Its TGI is 23.1 µM.

And the GI50 (MCF7 breast)?
The GI50 was 3.48 µM.

And the TGI (MCF7 breast)?
Its TGI is 20.2 µM.

And the GI50 (IGROV1 ovarian)?
Its GI50 is 24.2 µM.

What about the TGI (IGROV1 ovarian) of the same compound?
Its TGI is 69.1 µM.

What about the GI50 (MOLT-4 leukemia) of the same compound?
Its GI50 is 40.8 µM.

And the TGI (MOLT-4 leukemia)?
The TGI was greater than 100 µM.

What about the GI50 (OVCAR-5 ovarian) of the same compound?
The GI50 was 16.3 µM.

What about the TGI (OVCAR-5 ovarian) of the same compound?
Its TGI is 50.8 µM.

And the GI50 (SK-MEL-2 melanoma)?
The GI50 was 14.6 µM.

What about the TGI (SK-MEL-2 melanoma) of the same compound?
Its TGI is 29.1 µM.

And the GI50 (SF-268 CNS)?
Its GI50 is 28.4 µM.

What about the TGI (SF-268 CNS) of the same compound?
Its TGI is greater than 100 µM.

And the GI50 (NCI-H226 lung)?
Its GI50 is 5.74 µM.

And the TGI (NCI-H226 lung)?
Its TGI is 22.7 µM.

And the GI50 (HCC-2998 colon)?
Its GI50 is 25.3 µM.

What about the TGI (HCC-2998 colon) of the same compound?
Its TGI is greater than 100 µM.

And the GI50 (NCI-H522 lung)?
Its GI50 is 6 µM.

What about the TGI (NCI-H522 lung) of the same compound?
Its TGI is 21.4 µM.

And the GI50 (CCRF-CEM leukemia)?
The GI50 was 3.08 µM.

And the TGI (CCRF-CEM leukemia)?
Its TGI is greater than 100 µM.

And the GI50 (OVCAR-8 ovarian)?
The GI50 was 4.86 µM.

What about the TGI (OVCAR-8 ovarian) of the same compound?
Its TGI is 19.2 µM.

What about the GI50 (HCT-116 colon) of the same compound?
The GI50 was 4.3 µM.

What about the TGI (HCT-116 colon) of the same compound?
The TGI was 17.2 µM.

And the GI50 (KM12 colon)?
Its GI50 is 17.7 µM.

And the TGI (KM12 colon)?
The TGI was greater than 100 µM.

What about the GI50 (TK-10 renal) of the same compound?
Its GI50 is 34.6 µM.

And the TGI (TK-10 renal)?
The TGI was greater than 100 µM.
